Measured values taken from ChEMBL document CHEMBL1201861, “Genomics of Drug Sensitity in Cancer screening data, Wellcome Trust Sanger Institute”.

Experiments:
Test in all cases: cells
Format in all cases: functional, cell-based, Homo sapiens
D-423MG = conditions: Homo sapiens, D-423MG
Description: SANGER: Inhibition of human D-423MG cell growth in a cell viability assay.

DBTRG-05MG = tested on: DBTRG-05MG;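 further: cell viability assay measuring growth inhibition of human DBTRG-05MG cells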
Description: SANGER: Inhibition of human DBTRG-05MG cell growth in a cell viability assay.

DOK = tested on: DOK;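 further: cell viability assay read-out, values reflect inhibition of cell growth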
Description: SANGER: Inhibition of human DOK cell growth in a cell viability assay.

EFO-21 = tested on: EFO-21;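 further: growth inhibition of EFO-21 cells measured with a viability assay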
Description: SANGER: Inhibition of human EFO-21 cell growth in a cell viability assay.

HGC-27 = tested on: HGC-27;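 further: growth inhibition of human HGC-27 cells, read out in a cell viability assay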
Description: SANGER: Inhibition of human HGC-27 cell growth in a cell viability assay.

HOS = tested on: HOS;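 further: growth inhibition of human HOS cells, read out with a cell viability assay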
Description: SANGER: Inhibition of human HOS cell growth in a cell viability assay.

HSC-3 = tested on: HSC-3
Description: SANGER: Inhibition of human HSC-3 cell growth in a cell viability assay.

HT-1080 = tested on: HT-1080
Description: SANGER: Inhibition of human HT-1080 cell growth in a cell viability assay.

HT-29 = tested on: HT-29;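 further: growth inhibition of human HT-29 cells, read out by a cell viability assay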
Description: SANGER: Inhibition of human HT-29 cell growth in a cell viability assay.

KYSE-180 = tested on: KYSE-180;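 further: growth inhibition of KYSE-180 cells, read out with a cell viability assay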
Description: SANGER: Inhibition of human KYSE-180 cell growth in a cell viability assay.

KYSE-450 = tested on: KYSE-450;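 further: cell growth inhibition measured by a viability assay in human KYSE-450 cells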
Description: SANGER: Inhibition of human KYSE-450 cell growth in a cell viability assay.

LK-2 = tested on: LK-2;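 further: growth inhibition of LK-2 cells, read out with a viability assay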
Description: SANGER: Inhibition of human LK-2 cell growth in a cell viability assay.

MDA-MB-415 = tested on: MDA-MB-415
MG-63 = tested on: MG-63;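 further: growth inhibition of human MG-63 cells, read out with a cell viability assay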
Description: SANGER: Inhibition of human MG-63 cell growth in a cell viability assay.

MHH-ES-1 = tested on: MHH-ES-1;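 further: cell growth inhibition measured by a cell viability assay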
Description: SANGER: Inhibition of human MHH-ES-1 cell growth in a cell viability assay.

NCI-H1437 = tested on: NCI-H1437;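 further: growth inhibition of human NCI-H1437 cells, read out by a cell viability assay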
Description: SANGER: Inhibition of human NCI-H1437 cell growth in a cell viability assay.

NCI-H1651 = tested on: NCI-H1651;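 further: Read-out is a cell viability assay, with IC50 expressing inhibition of NCI-H1651 cell growth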
Description: SANGER: Inhibition of human NCI-H1651 cell growth in a cell viability assay.

NCI-H1693 = tested on: NCI-H1693;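 further: growth inhibition of the human cell line, read out with a cell viability assay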
Description: SANGER: Inhibition of human NCI-H1693 cell growth in a cell viability assay.

NCI-H2029 = conditions: Homo sapiens, NCI-H2029;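 further: Read-out is a viability assay on the cultured cells, and IC50 is the concentration that suppresses cell growth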
Description: SANGER: Inhibition of human NCI-H2029 cell growth in a cell viability assay.

NCI-H2228 = tested on: NCI-H2228;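 further: growth inhibition of human NCI-H2228 cells, read out by a cell viability assay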
Description: SANGER: Inhibition of human NCI-H2228 cell growth in a cell viability assay.

NCI-H460 = tested on: NCI-H460;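 further: cell viability assay scoring growth inhibition of human NCI-H460 cells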
Description: SANGER: Inhibition of human NCI-H460 cell growth in a cell viability assay.

NCI-H727 = tested on: NCI-H727;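 further: growth inhibition of human NCI-H727 cells, read out with a cell viability assay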
Description: SANGER: Inhibition of human NCI-H727 cell growth in a cell viability assay.

OVCAR-5 = tested on: OVCAR-5;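 further: growth inhibition of human OVCAR-5 cells, read out with a cell viability assay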
Description: SANGER: Inhibition of human OVCAR-5 cell growth in a cell viability assay.

RMG-I = tested on: RMG-I;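 further: growth inhibition of human RMG-I cells, read out with a cell viability assay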
Description: SANGER: Inhibition of human RMG-I cell growth in a cell viability assay.

SBC-5 = tested on: SBC-5;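 further: cell viability assay read-out, IC50 is the concentration that inhibits growth of the cells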
Description: SANGER: Inhibition of human SBC-5 cell growth in a cell viability assay.

SK-MES-1 = tested on: SK-MES-1;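 further: growth inhibition of human SK-MES-1 cells, read out with a cell viability assay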
Description: SANGER: Inhibition of human SK-MES-1 cell growth in a cell viability assay.

SNU-423 = tested on: SNU-423
Description: SANGER: Inhibition of human SNU-423 cell growth in a cell viability assay.

SW1463 = tested on: SW1463;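 further: growth inhibition of SW1463 cells, determined with a cell viability assay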
Description: SANGER: Inhibition of human SW1463 cell growth in a cell viability assay.

SW1710 = tested on: SW1710;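 further: growth inhibition of SW1710 cells, determined with a cell viability assay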
Description: SANGER: Inhibition of human SW1710 cell growth in a cell viability assay.

SiHa = tested on: SiHa;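 further: Viability-based readout of growth inhibition in SiHa cells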
Description: SANGER: Inhibition of human SiHa cell growth in a cell viability assay.

5637 = tested on: 5637
Description: SANGER: Inhibition of human 5637 cell growth in a cell viability assay.

A 172 = tested on: A 172;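 further: growth inhibition of A172 cells, measured with a cell viability readout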
Description: SANGER: Inhibition of human A172 cell growth in a cell viability assay.

BT-549 = conditions: Homo sapiens, BT-549
Description: SANGER: Inhibition of human BT-549 cell growth in a cell viability assay.

BXPC-3 = tested on: BXPC-3;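 further: growth inhibition of human BxPC-3 cells, read out by a cell viability assay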
Description: SANGER: Inhibition of human BxPC-3 cell growth in a cell viability assay.

CAL-72 = tested on: CAL-72;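 further: cell viability assay measuring inhibition of proliferation in the CAL-72 cell line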
Description: SANGER: Inhibition of human CAL-72 cell growth in a cell viability assay.

YAPC = tested on: YAPC;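 further: growth inhibition of YAPC cells, measured with a cell viability assay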
Description: SANGER: Inhibition of human YAPC cell growth in a cell viability assay.

YH-13 = conditions: Homo sapiens, YH-13;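 further: cell viability readout of growth suppression in the human YH-13 cell line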
Description: SANGER: Inhibition of human YH-13 cell growth in a cell viability assay.

EFM-19 = tested on: EFM-19;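 further: growth inhibition of human EFM-19 cells, measured in a cell viability assay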
Description: SANGER: Inhibition of human EFM-19 cell growth in a cell viability assay.

EW-22 = conditions: Homo sapiens, EW-22;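 further: growth inhibition of the EW-22 cell line, measured with a cell viability readout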
Description: SANGER: Inhibition of human EW-22 cell growth in a cell viability assay.

IGR-1 = tested on: IGR-1;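 further: growth inhibition of human IGR-1 cells, read out with a cell viability assay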
Description: SANGER: Inhibition of human IGR-1 cell growth in a cell viability assay.

MFE-280 = tested on: MFE-280;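 further: growth inhibition of MFE-280 cells, determined with a cell viability readout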
Description: SANGER: Inhibition of human MFE-280 cell growth in a cell viability assay.

NCI-H2347 = tested on: NCI-H2347;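 further: growth inhibition of the cell line, read out with a cell viability assay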
Description: SANGER: Inhibition of human NCI-H2347 cell growth in a cell viability assay.

8305C = tested on: 8305C
Description: SANGER: Inhibition of human 8305C cell growth in a cell viability assay.

VMRC-RCZ = tested on: VMRC-RCZ;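 further: growth inhibition measured with a cell viability assay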
Description: SANGER: Inhibition of human VMRC-RCZ cell growth in a cell viability assay.

HCC1599 = conditions: hcc1599;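 further: growth inhibition of HCC1599 cells, read out in a cell viability assay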
Description: SANGER: Inhibition of human HCC1599 cell growth in a cell viability assay.

LB647-SCLC = conditions: lb647-sclc;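 further: cell growth inhibition, read out by a viability assay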
Description: SANGER: Inhibition of human LB647-SCLC cell growth in a cell viability assay.

NCI-H1963 = conditions: nci-h1963;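 further: cell growth inhibition of the human line, determined with a cell viability assay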
Description: SANGER: Inhibition of human NCI-H1963 cell growth in a cell viability assay.

SCC-3 = conditions: scc-3;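 further: cell viability assay measuring inhibition of SCC-3 cell growth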
Description: SANGER: Inhibition of human SCC-3 cell growth in a cell viability assay.

SIG-M5 = conditions: sig-m5;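 further: cell viability assay read-out, measuring how strongly growth of cultured human SIG-M5 cells is inhibited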
Description: SANGER: Inhibition of human SIG-M5 cell growth in a cell viability assay.

**Q.** What does the source list for `CN(C)C(=N)NC(=N)N` [METFORMIN]?
**A.** IC50 (D-423MG): 3260 µM; IC50 (DBTRG-05MG; Homo sapiens, DBTRG-05MG): 7270 µM; IC50 (DOK; Homo sapiens, DOK): 4250 µM; IC50 (EFO-21; Homo sapiens, EFO-21): > 20000 µM; IC50 (HGC-27; Homo sapiens, HGC-27): > 20000 µM; IC50 (HOS; Homo sapiens, HOS): > 20000 µM; IC50 (HSC-3; Homo sapiens, HSC-3): > 20000 µM; IC50 (HT-1080; Homo sapiens, HT-1080): > 20000 µM; IC50 (HT-29; Homo sapiens, HT-29): > 20000 µM; IC50 (KYSE-180; Homo sapiens, KYSE-180): 9060 µM; IC50 (KYSE-450; Homo sapiens, KYSE-450): > 20000 µM; IC50 (LK-2; Homo sapiens, LK-2): 9240 µM; IC50 (MDA-MB-415; Homo sapiens, MDA-MB-415): 16800 µM; IC50 (MG-63; Homo sapiens, MG-63): 14000 µM; IC50 (MHH-ES-1; Homo sapiens, MHH-ES-1): > 20000 µM; IC50 (NCI-H1437; Homo sapiens, NCI-H1437): > 20000 µM; IC50 (NCI-H1651; Homo sapiens, NCI-H1651): 18500 µM; IC50 (NCI-H1693; Homo sapiens, NCI-H1693): > 20000 µM; IC50 (NCI-H2029): 14800 µM; IC50 (NCI-H2228; Homo sapiens, NCI-H2228): > 20000 µM; IC50 (NCI-H460; Homo sapiens, NCI-H460): > 20000 µM; IC50 (NCI-H727; Homo sapiens, NCI-H727): > 20000 µM; IC50 (OVCAR-5; Homo sapiens, OVCAR-5): > 20000 µM; IC50 (RMG-I; Homo sapiens, RMG-I): > 20000 µM; IC50 (SBC-5; Homo sapiens, SBC-5): 17100 µM; IC50 (SK-MES-1; Homo sapiens, SK-MES-1): > 20000 µM; IC50 (SNU-423; Homo sapiens, SNU-423): > 20000 µM; IC50 (SW1463; Homo sapiens, SW1463): > 20000 µM; IC50 (SW1710; Homo sapiens, SW1710): > 20000 µM; IC50 (SiHa; Homo sapiens, SiHa): > 20000 µM; IC50 (5637; Homo sapiens): 5300 µM; IC50 (A 172; Homo sapiens, A 172): 17500 µM; IC50 (BT-549): 4200 µM; IC50 (BXPC-3; Homo sapiens, BXPC-3): > 20000 µM; IC50 (CAL-72; Homo sapiens, CAL-72): 6270 µM; IC50 (YAPC; Homo sapiens, YAPC): > 20000 µM; IC50 (YH-13): > 20000 µM

**Q.** Which results are given for `Cn1cnc2c(F)c(Nc3ccc(Br)cc3Cl)c(C(=O)NOCCO)cc21` [SELUMETINIB]?
**A.** IC50 (D-423MG): > 4 µM; IC50 (DBTRG-05MG; Homo sapiens, DBTRG-05MG): > 4 µM; IC50 (DOK; Homo sapiens, DOK): 0.147 µM; IC50 (EFM-19; Homo sapiens, EFM-19): > 4 µM; IC50 (EFO-21; Homo sapiens, EFO-21): 3.19 µM; IC50 (EW-22): > 4 µM; IC50 (HGC-27; Homo sapiens, HGC-27): > 4 µM; IC50 (HOS; Homo sapiens, HOS): > 4 µM; IC50 (HSC-3; Homo sapiens, HSC-3): 1.19 µM; IC50 (HT-1080; Homo sapiens, HT-1080): 2.43 µM; IC50 (HT-29; Homo sapiens, HT-29): 0.873 µM; IC50 (IGR-1; Homo sapiens, IGR-1): > 4 µM; IC50 (KYSE-180; Homo sapiens, KYSE-180): > 4 µM; IC50 (KYSE-450; Homo sapiens, KYSE-450): > 4 µM; IC50 (LK-2; Homo sapiens, LK-2): > 4 µM; IC50 (MDA-MB-415; Homo sapiens, MDA-MB-415): > 4 µM; IC50 (MFE-280; Homo sapiens, MFE-280): > 4 µM; IC50 (MG-63; Homo sapiens, MG-63): > 4 µM; IC50 (MHH-ES-1; Homo sapiens, MHH-ES-1): > 4 µM; IC50 (NCI-H1437; Homo sapiens, NCI-H1437): 0.353 µM; IC50 (NCI-H1651; Homo sapiens, NCI-H1651): > 4 µM; IC50 (NCI-H1693; Homo sapiens, NCI-H1693): > 4 µM; IC50 (NCI-H2029): > 4 µM; IC50 (NCI-H2228; Homo sapiens, NCI-H2228): > 4 µM; IC50 (NCI-H2347; Homo sapiens, NCI-H2347): > 4 µM; IC50 (NCI-H460; Homo sapiens, NCI-H460): 2.8 µM; IC50 (NCI-H727; Homo sapiens, NCI-H727): > 4 µM; IC50 (OVCAR-5; Homo sapiens, OVCAR-5): > 4 µM; IC50 (RMG-I; Homo sapiens, RMG-I): > 4 µM; IC50 (SBC-5; Homo sapiens, SBC-5): > 4 µM; IC50 (SK-MES-1; Homo sapiens, SK-MES-1): > 4 µM; IC50 (SNU-423; Homo sapiens, SNU-423): > 4 µM; IC50 (SW1463; Homo sapiens, SW1463): > 4 µM; IC50 (SW1710; Homo sapiens, SW1710): > 4 µM; IC50 (SiHa; Homo sapiens, SiHa): > 4 µM; IC50 (5637; Homo sapiens): > 4 µM; IC50 (8305C; Homo sapiens, 8305C): > 4 µM; IC50 (BT-549): > 4 µM; IC50 (BXPC-3; Homo sapiens, BXPC-3): > 4 µM; IC50 (CAL-72; Homo sapiens, CAL-72): > 4 µM; IC50 (VMRC-RCZ; Homo sapiens, VMRC-RCZ): > 4 µM; IC50 (YAPC; Homo sapiens, YAPC): > 4 µM; IC50 (YH-13): > 4 µM

**Q.** BLEOMYCIN was tested. Which IC50 (DBTRG-05MG; dbtrg-05mg) did it give?
**A.** Its IC50 is 5.67 µM.

**Q.** And the IC50 (DOK; dok)?
**A.** Its IC50 is 322 µM.

**Q.** What about the IC50 (EFM-19; efm-19) of the same compound?
**A.** Its IC50 is 0.0148 µM.

**Q.** And the IC50 (EFO-21; efo-21)?
**A.** The IC50 was 4.33 µM.

**Q.** What about the IC50 (HCC1599) of the same compound?
**A.** Its IC50 is 3.37 µM.

**Q.** What about the IC50 (HGC-27; hgc-27) of the same compound?
**A.** Its IC50 is 2.84 µM.

**Q.** What about the IC50 (HOS; hos) of the same compound?
**A.** Its IC50 is 0.56 µM.

**Q.** What about the IC50 (HSC-3; hsc-3) of the same compound?
**A.** Its IC50 is 0.688 µM.

**Q.** And the IC50 (HT-1080; ht-1080)?
**A.** The IC50 was 0.234 µM.

**Q.** And the IC50 (HT-29; ht-29)?
**A.** Its IC50 is 0.535 µM.

**Q.** What about the IC50 (IGR-1; igr-1) of the same compound?
**A.** Its IC50 is 2.35 µM.

**Q.** What about the IC50 (KYSE-180; kyse-180) of the same compound?
**A.** The IC50 was 3.8 µM.

**Q.** And the IC50 (KYSE-450; kyse-450)?
**A.** Its IC50 is 1.93 µM.

**Q.** What about the IC50 (LB647-SCLC) of the same compound?
**A.** Its IC50 is 3.14 µM.

**Q.** And the IC50 (LK-2; lk-2)?
**A.** The IC50 was 1.69 µM.

**Q.** What about the IC50 (MDA-MB-415; mda-mb-415) of the same compound?
**A.** The IC50 was 67.3 µM.

**Q.** And the IC50 (MFE-280; mfe-280)?
**A.** The IC50 was 359 µM.

**Q.** And the IC50 (MG-63; mg-63)?
**A.** The IC50 was 1.49 µM.

**Q.** What about the IC50 (MHH-ES-1; mhh-es-1) of the same compound?
**A.** The IC50 was 0.0436 µM.

**Q.** And the IC50 (NCI-H1437; nci-h1437)?
**A.** The IC50 was 0.743 µM.

**Q.** What about the IC50 (NCI-H1651; nci-h1651) of the same compound?
**A.** Its IC50 is 0.505 µM.

**Q.** What about the IC50 (NCI-H1693; nci-h1693) of the same compound?
**A.** The IC50 was 16.6 µM.

**Q.** And the IC50 (NCI-H1963)?
**A.** The IC50 was 193 µM.

**Q.** What about the IC50 (NCI-H2228; nci-h2228) of the same compound?
**A.** Its IC50 is 0.955 µM.

**Q.** What about the IC50 (NCI-H2347; nci-h2347) of the same compound?
**A.** The IC50 was 5.12 µM.

**Q.** What about the IC50 (NCI-H460; nci-h460) of the same compound?
**A.** The IC50 was 4.76 µM.

**Q.** And the IC50 (NCI-H727; nci-h727)?
**A.** Its IC50 is 10.3 µM.

**Q.** And the IC50 (OVCAR-5; ovcar-5)?
**A.** Its IC50 is 4.75 µM.

**Q.** And the IC50 (RMG-I; rmg-i)?
**A.** Its IC50 is 0.000132 µM.

**Q.** What about the IC50 (SBC-5; sbc-5) of the same compound?
**A.** Its IC50 is 0.624 µM.

**Q.** And the IC50 (SCC-3)?
**A.** Its IC50 is 3.21 µM.

**Q.** What about the IC50 (SIG-M5) of the same compound?
**A.** The IC50 was 0.586 µM.

**Q.** What about the IC50 (SK-MES-1; sk-mes-1) of the same compound?
**A.** Its IC50 is 3.07 µM.

**Q.** And the IC50 (SNU-423; snu-423)?
**A.** Its IC50 is 0.867 µM.

**Q.** What about the IC50 (SW1463; sw1463) of the same compound?
**A.** Its IC50 is 23.4 µM.

**Q.** What about the IC50 (SW1710; sw1710) of the same compound?
**A.** The IC50 was 0.295 µM.

**Q.** And the IC50 (SiHa; siha)?
**A.** The IC50 was 5170 µM.

**Q.** What about the IC50 5637 of the same compound?
**A.** The IC50 was 0.029 µM.

**Q.** And the IC50 (8305C; 8305c)?
**A.** The IC50 was 0.804 µM.

**Q.** What about the IC50 (A 172; a 172) of the same compound?
**A.** The IC50 was 39.7 µM.

**Q.** What about the IC50 (BXPC-3; bxpc-3) of the same compound?
**A.** The IC50 was 3.81 µM.

**Q.** What about the IC50 (CAL-72; cal-72) of the same compound?
**A.** Its IC50 is 580 µM.

**Q.** And the IC50 (VMRC-RCZ; vmrc-rcz)?
**A.** The IC50 was 2.69 µM.

**Q.** What about the IC50 (YAPC; yapc) of the same compound?
**A.** Its IC50 is 4190 µM.
